Source: the supplement of paper PMC9265050, “Inhibition of RNA Binding in SND1 Increases the Levels of miR-1-3p and Sensitizes Cancer Cells to Navitoclax” (Cancers, 2022)

Tested on: SW480
Assay: drug sensitivity score (DSS, integrated dose-response area); higher = more sensitive (stronger viability reduction); extreme values may be limits of the assay
Method in brief: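 SW480 cells stably carrying doxycycline-inducible control or SND1-targeting shRNA were treated with 0.1 µg/mL doxycycline for 7 days. Cells were then seeded at 1000 per well into 384-well plates containing 525 commercially available small-molecule inhibitors at five concentrations, and viability was measured with CellTiter-Glo after 72 h. The drug sensitivity score integrates the area under a fitted non-linear dose–response model.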

[1] = shRNA: SND1 shRNA1 (SND1 silenced)
[2] = shRNA: control shRNA (non-targeting)
[3] = shRNA: SND1 shRNA2 (SND1 silenced)

Compound | drug sensitivity score [1] [DSS] | drug sensitivity score [2] [DSS] | drug sensitivity score [3] [DSS]
C[C@@H]1CN(CC(=O)Nc2ccc3c(c2)Cc2cccc(-c4cc(=O)cc(N5CCOCC5)o4)c2S3)C[C@H](C)O1 | 6.4 | 5.3 | 
COc1ccc(C[C@H](NC(=O)[C@H](C)NC(=O)CN2CCOCC2)C(=O)N[C@@H](Cc2ccccc2)C(=O)C2(C)CO2)cc1 (stereo in doubt) [ONX-0914] | 12.9 | 15.4 | 12.6
Cn1cc(C[C@@H](N)C(=O)O)c2ccccc21 [1-methyl-D-tryptophan] | 0 | 0 | 
COc1cc2c(cc1O)CC[C@@H]1[C@@H]2CC[C@]2(C)[C@@H](O)CC[C@@H]12 [2-methoxyestradiol] | 5.5 | 6.1 | 6.6
CC/C(=C(\c1ccc(O)cc1)c1ccc(OCCN(C)C)cc1)c1ccccc1 [4-hydroxytamoxifen] | 6.8 | 8.7 | 5.4
Nc1ncnc2c1nc(N)n2[C@@H]1O[C@H](CO)[C@@H](O)[C@H]1O [8-amino-adenosine] | 23.6 | 22.2 | 24.3
Nc1ncnc2c1nc(Cl)n2[C@@H]1O[C@H](CO)[C@@H](O)[C@H]1O [8-chloro-adenosine] | 13.5 | 11.3 | 13.3
CCCCC/C=C/C=C1/C(=O)C=C[C@@H]1C/C=C\CCCC(=O)O [15D-PGJ2] | 1.7 | 0 | 0
COc1cc(O)c2c(c1)/C=C/C[C@H](O)[C@H](O)C(=O)/C=C\C[C@H](C)OC2=O [(5Z)-7-Oxozeaenol] | 3.7 | 3.6 | 2.6
COc1ccc(S(=O)(=O)Nc2cccnc2Nc2ccc(O)cc2)cc1 [ABT-751] | 9 | 9.5 | 9.1
Cc1ccccc1C(C(=O)NC1CCCCC1)N(C(=O)Cn1ccnc1C)c1cccc(F)c1 (stereo unspecified) [AGI-5198] | 0 | 3.6 | 
O=C(Nc1cccc(C(F)(F)F)c1)Nc1cc(S(=O)(=O)NC2CC2)ccc1-c1ccsc1 [AGI-6780] | 0.2 | 0.5 | 
COc1ccc2c(OCc3nnc4ccc(-c5ccccc5)nn34)ccnc2c1 [AMG-208] | 0 | 0.5 | 2
CC(C)[C@@H](CS(=O)(=O)C(C)C)N1C(=O)[C@@](C)(CC(=O)O)C[C@H](c2cccc(Cl)c2)[C@H]1c1ccc(Cl)cc1 [AMG-232] | 0 | 0 | 0
Cc1csc(-c2nnc(Nc3ccc(Oc4ncccc4-c4ccnc(N)n4)cc3)c3ccccc23)c1 [AMG-900] | 5 | 1.7 | 0
CC1CCC(n2c3cnccc3c3cnc(Nc4ccc5c(n4)CCN(C(=O)CO)C5)nc32)CC1 (stereo unspecified) [AMG-925] | 1.1 | 0 | 0
COCC1(CO)C(=O)C2CCN1CC2 (stereo unspecified) [APR-246] | 0 | 2 | 1.1
CC(C)[C@H](C(=O)Nc1ccc(C(=O)NO)cc1)c1ccccc1 [AR-42] | 19.6 | 10.9 | 12.9
CNC(=O)c1ccc(N2C(=S)N(c3cnc(C#N)c(C(F)(F)F)c3)C(=O)C23CCC3)cc1F [ARN 509] | 0.7 | 0.9 | 0
COc1cc(N2CCC(N3CCN(C)CC3)CC2)ccc1Nc1ncnc(Nc2ccccc2S(=O)(=O)C(C)C)n1 [ASP3026] | 4.6 | 8 | 5
O=C(NC1CCNCC1)c1n[nH]cc1NC(=O)c1c(Cl)cccc1Cl [AT7519] | 10.7 | 14.4 | 9.1
O=C(Nc1c[nH]nc1-c1nc2ccc(CN3CCOCC3)cc2[nH]1)NC1CC1 [AT9283] | 3.6 | 0.6 | 0
CN[C@@H](C)C(=O)N[C@H]1CN(C(=O)CC(C)C)CC[C@H]2CC[C@@H](C(=O)NC(c3ccccc3)c3ccccc3)N2C1=O [AT-406] | 0 | 0 | 0
CC[C@H](CC#N)OC(=O)N[C@@H](C)c1cccc(NC(=O)Nc2ccc(-c3cnco3)c(OC)c2)c1 [AVN944] | 13.4 | 12.3 | 
COc1cc(N2CCN(C)CC2)ccc1Nc1nccc(-c2cn(C)c3cnccc23)n1 [AZ191] | 6.8 | 7.9 | 

Compound | drug sensitivity score [1] [DSS] | drug sensitivity score [2] [DSS] | drug sensitivity score [3] [DSS]
COc1cc(OC2CCN(C)CC2)ccc1Nc1ncc2c(n1)n(C1CCCC1)c(=O)n2C [AZ 3146] | 10.9 | 9.5 | 10.6
CC(C)Oc1cc(Nc2nc(N[C@@H](C)c3ccc(F)cn3)ncc2Cl)n[nH]1 [AZ-23] | 3.1 | 4.5 | 1.9
N[C@@H]1CCCN(c2c(/C=C3\SC(=O)NC3=O)cccc2-c2ccccc2)C1 [AZD1208] | 0 | 0 | 
Cc1cc(Nc2nc(N[C@@H](C)c3ncc(F)cn3)ncc2Cl)[nH]n1 [AZD1480] | 0.6 | 1.1 | 0
CNC(=O)c1cccc(-c2ccc3c(N4CCOC[C@@H]4C)nc(N4CCOC[C@@H]4C)nc3n2)c1 [AZD2014] | 13.2 | 9.6 | 12.6
COc1cc(CCc2cc(NC(=O)c3ccc(N4CC(C)NC(C)C4)cc3)n[nH]2)cc(OC)c1 (stereo unspecified) [AZD4547] | 2.9 | 1.6 | 0
CN(C)C(=O)c1ccc(S(=O)(=O)c2ccc(NC(=O)[C@@](C)(O)C(F)(F)F)c(Cl)c2)cc1 [AZD7545] | 0 | 0 | 2.4
NC(=O)Nc1cc(-c2cccc(F)c2)sc1C(=O)N[C@H]1CCCNC1 [AZD7762] | 7.8 | 8.7 | 8.6
COc1ccc(-c2ccc3c(N4CCOC[C@@H]4C)nc(N4CCOC[C@@H]4C)nc3n2)cc1CO [AZD8055] | 20.6 | 14.9 | 19.2
N#Cc1ccc2[nH]c(O)c(-c3ccc(CN4CCOCC4)cn3)c2c1 [AZD-1080] | 1.3 | 1.1 | 
Cc1ncc(-c2ccnc(Nc3ccc(S(C)(=O)=O)cc3)n2)n1C(C)C [AZD-5438] | 11.8 | 12.7 | 
Cc1cc([C@@H](C)Nc2ccccc2C(=O)O)c2nc(N3CCOCC3)cc(=O)n2c1 [AZD-6482] | 0 | 3 | 4.3
C[C@@H](Nc1cc(F)cc(F)c1)c1cc(C(=O)N(C)C)cc2c(=O)cc(N3CCOCC3)oc12 [AZD-8186] | 0 | 0 | 0
Cc1cc(C(=O)NOCCO)c(Nc2ccc(I)cc2F)n(C)c1=O [AZD-8330] | 32.4 | 18.4 | 22.9
CCN1CCN(Cc2ccc(Nc3ncc(F)c(-c4cc(F)c5nc(C)n(C(C)C)c5c4)n3)nc2)CC1 [Abemaciclib] | 4 | 4.1 | 0.2
CN(C)Cc1c(C(=O)NCCOc2ccc(C(=O)NO)cc2)oc2ccccc12 [Abexinostat] | 21.3 | 19.4 | 16.4
C[C@]12CC[C@H](O)CC1=CC[C@@H]1[C@@H]2CC[C@]2(C)C(c3cccnc3)=CC[C@@H]12 [Abiraterone] | 0 | 0 | 0
CN(C)C/C=C/C(=O)Nc1cc2c(Nc3ccc(F)c(Cl)c3)ncnc2cc1O[C@H]1CCOC1 [Afatinib] | 2.1 | 1.2 | 1.8
Cn1ncc(Cl)c1-c1cc(C(=O)N[C@H](CN)Cc2cccc(F)c2)sc1Cl [Afuresertib] | 0 | 0 | 2
COc1cccc2c1C(=O)c1c(O)c3c(c(O)c1C2=O)C[C@@](O)(/C(CO)=N/NC(=O)CCCCCN1C(=O)C=CC1=O)C[C@@H]3O[C@H]1C[C@H](N)[C@H](O)[C@H](C)O1 [Aldoxorubicin] | 7.5 | 8.4 | 5.7
CCc1cc2c(cc1N1CCC(N3CCOCC3)CC1)C(C)(C)c1[nH]c3cc(C#N)ccc3c1C2=O [Alectinib] | 0 | 0 | 0
COc1cc(Nc2ncc3c(n2)-c2ccc(Cl)cc2C(c2c(F)cccc2OC)=NC3)ccc1C(=O)O [Alisertib] | 12.6 | 6.5 | 4.4
Oc1ncnc2[nH]ncc12 [Allopurinol] | 0.2 | 1.2 | 0
Cc1nc(NC(=O)N2CCC[C@H]2C(N)=O)sc1-c1ccnc(C(C)(C)C(F)(F)F)c1 [Alpelisib] | 2.8 | 4.3 | 5.2
CN(C)c1nc(N(C)C)nc(N(C)C)n1 [Altretamine] | 0 | 0 | 0
